TGI and GI50 data for 13 compounds are collected here from PubChem BioAssay (NCI).

Test systems include ACHN renal; SNB-19 CNS; HCT-15 colon; OVCAR-8 ovarian; HT29 colon; SF-295 CNS; SK-MEL-2 melanoma; NCI-H226 lung; HCT-116 colon; MALME-3M melanoma.
Test in all cases: growth of human tumour cells (NCI), 48 h

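Following 48 hours of exposure in 96-well plates, responses at five concentrations were used to interpolate endpoints linearly. GI50 is the concentration that inhibits growth by half. TGI denotes the concentration required for complete inhibition of growth.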

For `Nc1ccc(S(=O)(=O)NCc2nccs2)cc1`, the TGI with ACHN renal was 63.4 µM; with SNB-19 CNS it was over 100 µM; in the assay on HCT-15 colon, 83.8 µM; with OVCAR-8 ovarian it was over 100 µM; with HT29 colon, 31.3 µM; in the assay on SF-295 CNS, over 100 µM. Besides, the TGI is 37.9 µM in the assay on SK-MEL-2 melanoma, 59 µM with NCI-H226 lung and 40.8 µM in the assay on HCT-116 colon.
For `O=C1NC2(CN3CCC2CC3)C(=O)N1CN(Cc1ccccc1)c1ccccc1` (stereo not given), the TGI with ACHN renal, in the assay on SNB-19 CNS, with HCT-15 colon, with OVCAR-8 ovarian, with HT29 colon and with SF-295 CNS was over 100 µM in each case. For the same compound, the TGI in the assay with SK-MEL-2 melanoma, in the assay with NCI-H226 lung and in the assay with HCT-116 colon was over 100 µM in each case.
As for `CC1(C)C2CCC3(C2)CS(=O)(=O)N2OC231` (stereo not given), the TGI in the assay with ACHN renal is 29.4 µM; in the assay with SNB-19 CNS, over 100 µM; with HCT-15 colon, 30.1 µM; with OVCAR-8 ovarian, 67.2 µM; in the assay on HT29 colon, 31.8 µM; in the assay on SF-295 CNS, over 100 µM. The TGI in the assay with SK-MEL-2 melanoma was 39.3 µM; with HCT-116 colon, over 100 µM; with MALME-3M melanoma, 28.8 µM.
Turning to `CCN(CC)CCCC(C)Nc1c2ccc(C)cc2nc2ccc(OC)cc12` (stereo not given), the GI50 in the assay with ACHN renal was 0.741 µM; in the assay on SNB-19 CNS, 4.78 µM; with HCT-15 colon it was 2.32 µM; in the assay with OVCAR-8 ovarian, 0.521 µM; in the assay on HT29 colon it was 0.37 µM; in the assay on SF-295 CNS, 1.47 µM. The GI50 with SK-MEL-2 melanoma is 1.89 µM; with HCT-116 colon, 0.585 µM; in the assay with MALME-3M melanoma, 1.73 µM. The TGI in the assay with ACHN renal stood at 11.7 µM; in the assay with SNB-19 CNS, 35.7 µM; in the assay on HCT-15 colon, 13.1 µM; with OVCAR-8 ovarian, 3.53 µM; with HT29 colon, 3.32 µM; with SF-295 CNS, 4.89 µM. The TGI in the assay on SK-MEL-2 melanoma worked out at 8.75 µM; in the assay with HCT-116 colon it was 6.46 µM; in the assay on MALME-3M melanoma it was 3.53 µM.
With `O=c1ccc(=O)c2c(=O)c3ccccc3c(=O)c1=2`, the TGI in the assay on ACHN renal, with SNB-19 CNS, in the assay with HCT-15 colon, in the assay with OVCAR-8 ovarian, in the assay with SF-295 CNS and with SK-MEL-2 melanoma was over 100 µM in each case. For the same compound, the TGI was 61.1 µM with HCT-116 colon and over 100 µM with MALME-3M melanoma.
For the compound `O=C1C2Cc3ccccc3CN2C(=O)N1CCN1CCCC1` (stereo not given), the TGI with ACHN renal, in the assay on SNB-19 CNS, with HCT-15 colon, in the assay on OVCAR-8 ovarian, with SF-295 CNS and in the assay with SK-MEL-2 melanoma was over 100 µM in each case. Also, the TGI in the assay on NCI-H226 lung and with MALME-3M melanoma was over 100 µM in each case.
As to `COC1CC(OC(=O)c2ccccc2)C(OC(=O)c2ccccc2)C(C)O1` (stereo not given), the TGI with ACHN renal, with SNB-19 CNS, in the assay on HCT-15 colon, in the assay on OVCAR-8 ovarian, in the assay on SF-295 CNS and in the assay with SK-MEL-2 melanoma was over 100 µM in each case. The TGI with NCI-H226 lung, in the assay with HCT-116 colon and in the assay on MALME-3M melanoma was over 100 µM in each case.
`CCN(CC)c1ccc2c(c1)Nc1cc(=C(C#N)C#N)c3ccccc3c1=N2`: the TGI with ACHN renal, in the assay on SNB-19 CNS, with OVCAR-8 ovarian, in the assay on HT29 colon, in the assay with SF-295 CNS and with SK-MEL-2 melanoma was over 100 µM throughout. Also, the TGI in the assay on NCI-H226 lung, in the assay on HCT-116 colon and with MALME-3M melanoma was over 100 µM throughout.
For the compound `Cc1cc(-c2nnc3n2CCCCC3)c(C)n1-c1ccc(Cl)c(Cl)c1`, the GI50 with ACHN renal is 12 µM; with SNB-19 CNS, 15.5 µM; in the assay on HCT-15 colon, 11.7 µM; in the assay with OVCAR-8 ovarian it was 15.4 µM; in the assay on HT29 colon, 16 µM; in the assay with SF-295 CNS, 16.4 µM. Besides, the values for the GI50 with SK-MEL-2 melanoma, with HCT-116 colon and with MALME-3M melanoma were 14.9 µM, 12.8 µM and 13.8 µM, respectively. In addition, the TGI was over 100 µM with ACHN renal; 47.1 µM in the assay on SNB-19 CNS; over 100 µM in the assay on HCT-15 colon; 64.1 µM in the assay with OVCAR-8 ovarian; 38.1 µM in the assay with HT29 colon; 52.5 µM in the assay on SF-295 CNS. Besides, the TGI in the assay on SK-MEL-2 melanoma is 31 µM; in the assay on HCT-116 colon, 28.7 µM; with MALME-3M melanoma it was 30.4 µM.
As to `CN1C(=O)C(Cl)(C(Cl)(Cl)S(=O)(=O)O)C(=O)c2ccccc21` (stereo not given), the TGI with ACHN renal is over 100 µM; in the assay on SNB-19 CNS, over 100 µM; with OVCAR-8 ovarian, over 100 µM; in the assay on HT29 colon, 73 µM; in the assay on SF-295 CNS, over 100 µM; in the assay on NCI-H226 lung, over 100 µM. Also, the TGI in the assay with HCT-116 colon was over 100 µM; with MALME-3M melanoma it was 76.1 µM.
In the case of `O=c1[nH]c(=O)n(C2OC3COC2C3O)cc1F` (stereo not given), the TGI with ACHN renal, in the assay with SNB-19 CNS, with HCT-15 colon, in the assay with OVCAR-8 ovarian, in the assay with HT29 colon and with SF-295 CNS was over 100 µM each time. Further, the TGI in the assay with SK-MEL-2 melanoma, in the assay on NCI-H226 lung and in the assay on MALME-3M melanoma was over 100 µM throughout.
As to `Cc1ccc(SC(=O)N2C(=S)NC(=NC3CCCCC3)C23CCCCC3)cc1`, the TGI with ACHN renal, with SNB-19 CNS, in the assay with HCT-15 colon, in the assay with HT29 colon, in the assay with SF-295 CNS and in the assay with SK-MEL-2 melanoma was over 100 µM in each case. In addition, the TGI in the assay on HCT-116 colon and in the assay with MALME-3M melanoma was over 100 µM in each case.
In the case of `Cc1cc2c(=O)c3ccccc3[nH]c2c(C(=O)O)c1C`, the TGI in the assay with ACHN renal, in the assay with SNB-19 CNS, in the assay with HCT-15 colon, with OVCAR-8 ovarian, in the assay with HT29 colon and with SF-295 CNS was over 100 µM throughout. Also, the TGI with SK-MEL-2 melanoma and with HCT-116 colon was over 100 µM each time.
